Results as given in ChEMBL document CHEMBL4411307, “N,N'-diaryl-bishydrazones in a biphenyl platform: Broad spectrum antifungal agents” (Eur J Med Chem, 2019).
Converted amounts (≈) assume the structure as drawn. The source made the active and inactive calls. No cut-off for these calls is given here.

Key:
[1] = Hemolytic activity in mouse RBC at 7.8 ug/ml after 1 hr relative to control; assay type: ADME, cell-based, Erythrocyte; conditions: red blood cells (erythrocytes), read-out: Activity
[2] = Selectivity index, ratio of compound concentration showing <20 to <25% hemolysis in mouse RBC to MIC for fluconazole/ITC-resistant Candida albicans ATCC 10231; assay type: toxicity; conditions: red blood cells (erythrocytes), read-out: Selectivity Index
Candida albicans [3] = assay: Antifungal activity against fluconazole/ITC-resistant Candida albicans ATCC MYA-1237 measured after 48 hrs by CLSI M27-A3 protocol based method; assay type: functional; conditions: ATCC MYA-1237, 48 h
[4] = Selectivity index, ratio of compound concentration showing <20 to <25% hemolysis in mouse RBC to MIC for fluconazole/ITC-resistant Candida albicans ATCC MYA-1003; assay type: toxicity; conditions: red blood cells (erythrocytes), read-out: Selectivity Index
[5] = Selectivity index, ratio of CC50 for human A549 cells to MIC for Aspergillus nidulans ATCC 38163; assay type: toxicity; conditions: read-out: Selectivity Index
Aspergillus flavus = assay: Antifungal activity against Aspergillus flavus ATCC MYA-3631 measured after 48 hrs by CLSI M38-A2 protocol based method; assay type: functional; conditions: ATCC MYA-3631, 48 h
[6] = Selectivity index, ratio of compound concentration showing <20 to <25% hemolysis in mouse RBC to MIC for fluconazole/ITC-resistant Candida albicans ATCC 64124; assay type: toxicity; conditions: red blood cells (erythrocytes), read-out: Selectivity Index
[7] = Selectivity index, ratio of compound concentration showing <20 to <25% hemolysis in mouse RBC to MIC for fluconazole/ITC-susceptible Candida albicans ATCC MYA-2876; assay type: toxicity; conditions: red blood cells (erythrocytes), read-out: Selectivity Index
[8] = Selectivity index, ratio of CC50 for human A549 cells to MIC for fluconazole/ITC-resistant Candida albicans ATCC MYA-1003; assay type: toxicity; conditions: read-out: Selectivity Index
[9] = Selectivity index, ratio of compound concentration showing <20 to <25% hemolysis in mouse RBC to MIC for Candida krusei ATCC 6258; assay type: toxicity; conditions: red blood cells (erythrocytes), read-out: Selectivity Index
Candida albicans [10] = assay: Antifungal activity against fluconazole/ITC-resistant Candida albicans ATCC 64124 measured after 48 hrs by CLSI M27-A3 protocol based method; assay type: functional; conditions: ATCC 64124, 48 h
BEAS-2B = assay: Cytotoxicity against human BEAS2B cells after 24 hrs by resazurin based assay; assay type: cell-based
Candida albicans [11] = assay: Antifungal activity against fluconazole/ITC-susceptible Candida albicans ATCC MYA-2310 measured after 48 hrs by CLSI M27-A3 protocol based method; assay type: functional; conditions: ATCC MYA-2310, 48 h
Candida parapsilosis = assay: Antifungal activity against Candida parapsilosis ATCC 22019 measured after 48 hrs by CLSI M27-A3 protocol based method; assay type: functional; conditions: Lodderomyces parapsilosis, ATCC 22019, 48 h
[12] = Selectivity index, ratio of CC50 for human A549 cells to MIC for fluconazole/ITC-resistant Candida albicans ATCC 10231; assay type: toxicity; conditions: read-out: Selectivity Index
[13] = Selectivity index, ratio of compound concentration showing <20 to <25% hemolysis in mouse RBC to MIC for fluconazole/ITC-resistant Candida albicans ATCC MYA-1237; assay type: toxicity; conditions: red blood cells (erythrocytes), read-out: Selectivity Index
[14] = Hemolytic activity in mouse RBC at 31.3 ug/ml after 1 hr relative to control; assay type: ADME, cell-based, Erythrocyte; conditions: red blood cells (erythrocytes), read-out: Activity
[15] = Hemolytic activity in mouse RBC at […] after 1 hr relative to control; assay type: ADME, cell-based, Erythrocyte; conditions: red blood cells (erythrocytes), read-out: Activity; note: tested at 0.48 µg/mL
[16] = Selectivity index, ratio of CC50 for human A549 cells to MIC for Aspergillus flavus ATCC MYA-3631; assay type: toxicity; conditions: read-out: Selectivity Index
Candida albicans [17] = assay: Antifungal activity against fluconazole/ITC-susceptible Candida albicans ATCC MYA-2876 measured after 48 hrs by CLSI M27-A3 protocol based method; assay type: functional; conditions: ATCC MYA-2876, 48 h
[18] = Selectivity index, ratio of compound concentration showing <20 to <25% hemolysis in mouse RBC to MIC for fluconazole/ITC-resistant Candida albicans ATCC 90819; assay type: toxicity; conditions: red blood cells (erythrocytes), read-out: Selectivity Index
[19] = Selectivity index, ratio of compound concentration showing <20 to <25% hemolysis in mouse RBC to MIC for Aspergillus flavus ATCC MYA-3631; assay type: toxicity; conditions: red blood cells (erythrocytes), read-out: Selectivity Index
Staphylococcus aureus = assay: Antibacterial activity against methicillin-resistant Staphylococcus aureus; assay type: functional, organism-based
Nakaseomyces glabratus = assay: Antifungal activity against Candida glabrata ATCC 2001 measured after 48 hrs by CLSI M27-A3 protocol based method; assay type: functional; conditions: CBS 138, 48 h
[20] = Hemolytic activity in mouse RBC at […] ug/ml after 1 hr relative to control; assay type: ADME, cell-based, Erythrocyte; conditions: red blood cells (erythrocytes), read-out: Activity
Candida albicans [21] = assay: Antifungal activity against fluconazole/ITC-resistant Candida albicans ATCC MYA-1003 measured after 48 hrs by CLSI M27-A3 protocol based method; assay type: functional; conditions: ATCC MYA-1003, 48 h
Pichia kudriavzevii = assay: Antifungal activity against Candida krusei ATCC 6258 measured after 48 hrs by CLSI M27-A3 protocol based method; assay type: functional; conditions: ATCC 6258, 48 h
A549 = assay: Cytotoxicity against human A549 cells after 24 hrs by resazurin based assay; assay type: cell-based; conditions: a549, 24 h
[22] = Selectivity index, ratio of CC50 for human A549 cells to MIC for fluconazole/ITC-susceptible Candida albicans ATCC MYA-2876; assay type: toxicity; conditions: read-out: Selectivity Index
[23] = Hemolytic activity in mouse RBC at 3.9 ug/ml after 1 hr relative to control; assay type: ADME, cell-based, Erythrocyte; conditions: red blood cells (erythrocytes), read-out: Activity
[24] = Hemolytic activity in mouse RBC at 62.5 ug/ml after 1 hr relative to control; assay type: ADME, cell-based, Erythrocyte; conditions: red blood cells (erythrocytes), read-out: Activity
Candida albicans [25] = assay: Antifungal activity against fluconazole/ITC-resistant Candida albicans ATCC 90819 measured after 48 hrs by CLSI M27-A3 protocol based method; assay type: functional; conditions: ATCC 90819, 48 h
[26] = Selectivity index, ratio of compound concentration showing <20 to <25% hemolysis in mouse RBC to MIC for Aspergillus terreus ATCC MYA-3633; assay type: toxicity; conditions: red blood cells (erythrocytes), read-out: Selectivity Index
Listeria monocytogenes = assay: Antibacterial activity against Listeria monocytogenes; assay type: functional, organism-based
[27] = Selectivity index, ratio of CC50 for human A549 cells to MIC for fluconazole/ITC-resistant Candida albicans ATCC 90819; assay type: toxicity; conditions: read-out: Selectivity Index
Aspergillus nidulans = assay: Antifungal activity against Aspergillus nidulans ATCC 38163 measured after 48 hrs by CLSI M38-A2 protocol based method; assay type: functional; conditions: ATCC 38163, 48 h
[28] = Selectivity index, ratio of compound concentration showing <20 to <25% hemolysis in mouse RBC to MIC for Candida parapsilosis ATCC 22019; assay type: toxicity; conditions: red blood cells (erythrocytes), read-out: Selectivity Index
Enterococcus = assay: Antibacterial activity against vancomycin-resistant Enterococcus; assay type: functional, organism-based
[29] = Selectivity index, ratio of CC50 for human A549 cells to MIC for fluconazole/ITC-resistant Candida albicans ATCC 64124; assay type: toxicity; conditions: read-out: Selectivity Index
[30] = Selectivity index, ratio of CC50 for human A549 cells to MIC for Aspergillus terreus ATCC MYA-3633; assay type: toxicity; conditions: read-out: Selectivity Index
[31] = Selectivity index, ratio of compound concentration showing <20 to <25% hemolysis in mouse RBC to MIC for Candida glabrata ATCC 2001; assay type: toxicity; conditions: red blood cells (erythrocytes), read-out: Selectivity Index
[32] = Selectivity index, ratio of CC50 for human A549 cells to MIC for Candida krusei ATCC 6258; assay type: toxicity; conditions: read-out: Selectivity Index
[33] = Hemolytic activity in mouse RBC at 1.95 ug/ml after 1 hr relative to control; assay type: ADME, cell-based, Erythrocyte; conditions: red blood cells (erythrocytes), read-out: Activity
[34] = Selectivity index, ratio of CC50 for human A549 cells to MIC for Candida glabrata ATCC 2001; assay type: toxicity; conditions: read-out: Selectivity Index
[35] = Selectivity index, ratio of CC50 for human A549 cells to MIC for Candida parapsilosis ATCC 22019; assay type: toxicity; conditions: read-out: Selectivity Index
[36] = Selectivity index, ratio of CC50 for human A549 cells to MIC for fluconazole/ITC-susceptible Candida albicans ATCC MYA-2310; assay type: toxicity; conditions: read-out: Selectivity Index
Aspergillus terreus = assay: Antifungal activity against Aspergillus terreus ATCC MYA-3633 measured after 48 hrs by CLSI M38-A2 protocol based method; assay type: functional; conditions: ATCC MYA-3633, 48 h
Candida albicans [37] = assay: Antifungal activity against fluconazole/ITC-resistant Candida albicans ATCC 10231 measured after 48 hrs by CLSI M27-A3 protocol based method; assay type: functional; conditions: ATCC 10231, 48 h
[38] = Selectivity index, ratio of compound concentration showing <20 to <25% hemolysis in mouse RBC to MIC for Aspergillus nidulans ATCC 38163; assay type: toxicity; conditions: red blood cells (erythrocytes), read-out: Selectivity Index
[39] = Selectivity index, ratio of compound concentration showing <20 to <25% hemolysis in mouse RBC to MIC for fluconazole/ITC-susceptible Candida albicans ATCC MYA-2310; assay type: toxicity; conditions: red blood cells (erythrocytes), read-out: Selectivity Index
[40] = Selectivity index, ratio of CC50 for human A549 cells to MIC for fluconazole/ITC-resistant Candida albicans ATCC MYA-1237; assay type: toxicity; conditions: read-out: Selectivity Index

## C(=N\Nc1ccccc1)/c1ccc(-c2ccc(/C=N/Nc3ccccc3)cc2)cc1
[1]
  hemolysis at 1 h, 7.8 ug/ml: 2.9%
[2]
  selectivity ratio: 1 to 32
Candida albicans [3]
  MIC: > 31.3 mg/L
[4]
  selectivity ratio: 1 to 32
[5]
  selectivity ratio: 9.1
Aspergillus flavus
  MIC: 3.9 mg/L (≈ 9.99 µM)
[6]
  selectivity ratio: 1 to 32
[7]
  selectivity ratio: 1 to 32
[8]
  selectivity ratio: 0.6
[9]
  selectivity ratio: 1 to 32
Candida albicans [10]
  MIC: > 31.3 mg/L
BEAS-2B
  CC50: 11 mg/L (≈ 28.2 µM)
Candida albicans [11]
  MIC: > 31.3 mg/L
Candida parapsilosis
  MIC: > 31.3 mg/L
[12]
  selectivity ratio: 2.3
[13]
  selectivity ratio: 1 to 32
[14]
  hemolysis at 1 h, 31.3 ug/ml: 10.8%
[15]
  hemolysis at 1 h, […]: 2%
[16]
  selectivity ratio: 4.5
Candida albicans [17]
  MIC: > 31.3 mg/L
[18]
  selectivity ratio: 1 to 32
[19]
  selectivity ratio: 1 to 32
Staphylococcus aureus
  Activity: inactive
Nakaseomyces glabratus
  MIC: > 31.3 mg/L
[20]; at 15.6 µg/mL
  hemolysis at 1 h, 15.6 ug/ml: 14.1%
[20]
  hemolysis at 1 h, 0.975 ug/ml: 0.1%
Candida albicans [21]
  MIC: > 31.3 mg/L
Pichia kudriavzevii
  MIC: > 31.3 mg/L
A549
  CC50: 17.7 mg/L (≈ 45.3 µM)
[22]
  selectivity ratio: 0.6
[23]
  hemolysis at 1 h, 3.9 ug/ml: 3.4%
[24]
  hemolysis at 1 h, 62.5 ug/ml: 17.2%
Candida albicans [25]
  MIC: 31.3 mg/L (≈ 80.2 µM)
[26]
  selectivity ratio: 1 to 32
Listeria monocytogenes
  Activity: inactive
[27]
  selectivity ratio: 0.6
Aspergillus nidulans
  MIC: 1.95 mg/L (≈ 4.99 µM)
[28]
  selectivity ratio: 1 to 32
Enterococcus
  Activity: inactive
[29]
  selectivity ratio: 0.6
[30]
  selectivity ratio: 1.1
[31]
  selectivity ratio: 1 to 32
[32]
  selectivity ratio: 0.6
[33]
  hemolysis at 1 h, 1.95 ug/ml: 3.7%
[34]
  selectivity ratio: 0.6
[35]
  selectivity ratio: 0.6
[36]
  selectivity ratio: 0.6
Aspergillus terreus
  MIC: 15.6 mg/L (≈ 39.9 µM)
Candida albicans [37]
  MIC: 7.8 mg/L (≈ 20 µM)
[38]
  selectivity ratio: 1 to 32
[39]
  selectivity ratio: 1 to 32
[40]
  selectivity ratio: 0.6
